Data taken from publication PMC4677828 (Combinatorial chemistry & high throughput screening, 2015).

What was measured:
Format in all cases: biochemical
[1] = target: HDAC2 (Homo sapiens, UniProt Q92769); experiment: fluorogenic HDAC assay; settings: 5 μL of 200 μM HDAC substrate in 50 μL; 30 min pre-incubation; 37 °C; BSA
[2] = target: T1, HDAC6 (Homo sapiens, UniProt Q9UBN7); experiment: single-concentration inhibition assay; settings: 100 μM inhibitor
T1 sequence (Q9UBN7 1-1215): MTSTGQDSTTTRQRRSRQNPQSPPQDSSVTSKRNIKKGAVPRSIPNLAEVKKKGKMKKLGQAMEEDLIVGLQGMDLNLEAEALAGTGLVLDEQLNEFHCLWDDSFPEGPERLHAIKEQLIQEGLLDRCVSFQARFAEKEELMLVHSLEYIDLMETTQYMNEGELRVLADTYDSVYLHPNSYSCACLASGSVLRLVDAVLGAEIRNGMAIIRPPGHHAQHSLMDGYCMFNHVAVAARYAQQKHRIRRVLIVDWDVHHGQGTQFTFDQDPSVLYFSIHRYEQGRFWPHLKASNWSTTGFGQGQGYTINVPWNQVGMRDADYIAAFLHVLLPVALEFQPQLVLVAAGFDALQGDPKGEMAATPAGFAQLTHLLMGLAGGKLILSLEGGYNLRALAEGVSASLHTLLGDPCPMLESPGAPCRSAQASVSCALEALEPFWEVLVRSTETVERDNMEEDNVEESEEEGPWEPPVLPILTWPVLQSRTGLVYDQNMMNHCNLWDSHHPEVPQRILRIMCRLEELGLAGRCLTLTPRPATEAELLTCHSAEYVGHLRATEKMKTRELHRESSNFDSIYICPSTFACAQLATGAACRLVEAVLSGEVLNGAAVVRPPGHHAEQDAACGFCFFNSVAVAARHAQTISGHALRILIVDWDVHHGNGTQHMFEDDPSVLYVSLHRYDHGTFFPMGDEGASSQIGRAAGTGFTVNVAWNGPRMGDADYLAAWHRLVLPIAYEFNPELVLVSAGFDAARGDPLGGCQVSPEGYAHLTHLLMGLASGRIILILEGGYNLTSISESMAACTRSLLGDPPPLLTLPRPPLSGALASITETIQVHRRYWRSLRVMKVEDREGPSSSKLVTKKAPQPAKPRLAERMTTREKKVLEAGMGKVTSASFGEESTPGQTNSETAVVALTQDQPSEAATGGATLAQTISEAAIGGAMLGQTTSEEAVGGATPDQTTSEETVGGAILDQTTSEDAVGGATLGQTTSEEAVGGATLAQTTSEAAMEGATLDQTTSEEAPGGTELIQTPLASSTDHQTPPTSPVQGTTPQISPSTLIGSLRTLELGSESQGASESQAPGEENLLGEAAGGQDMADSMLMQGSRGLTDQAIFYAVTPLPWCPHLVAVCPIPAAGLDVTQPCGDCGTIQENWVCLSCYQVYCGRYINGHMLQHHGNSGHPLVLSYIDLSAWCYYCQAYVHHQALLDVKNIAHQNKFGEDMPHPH

[3] = target: HDAC1 (Homo sapiens, UniProt Q13547); experiment: single-concentration inhibition assay; settings: 100 μM inhibitor
Chain of HDAC1 (Q13547 whole entry): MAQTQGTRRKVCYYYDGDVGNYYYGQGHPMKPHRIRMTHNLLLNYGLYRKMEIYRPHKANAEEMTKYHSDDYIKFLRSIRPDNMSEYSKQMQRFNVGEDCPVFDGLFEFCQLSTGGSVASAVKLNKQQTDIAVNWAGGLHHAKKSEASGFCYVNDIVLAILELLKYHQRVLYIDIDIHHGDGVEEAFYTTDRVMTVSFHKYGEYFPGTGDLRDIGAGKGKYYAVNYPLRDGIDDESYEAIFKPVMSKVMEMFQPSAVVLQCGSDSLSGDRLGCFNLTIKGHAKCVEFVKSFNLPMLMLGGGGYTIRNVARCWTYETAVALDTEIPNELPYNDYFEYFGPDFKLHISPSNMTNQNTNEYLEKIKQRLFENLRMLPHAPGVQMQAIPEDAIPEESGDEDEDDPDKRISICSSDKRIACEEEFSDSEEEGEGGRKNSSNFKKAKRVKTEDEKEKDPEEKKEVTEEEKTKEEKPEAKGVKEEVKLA

Chain of HDAC2 (Q92769 whole entry): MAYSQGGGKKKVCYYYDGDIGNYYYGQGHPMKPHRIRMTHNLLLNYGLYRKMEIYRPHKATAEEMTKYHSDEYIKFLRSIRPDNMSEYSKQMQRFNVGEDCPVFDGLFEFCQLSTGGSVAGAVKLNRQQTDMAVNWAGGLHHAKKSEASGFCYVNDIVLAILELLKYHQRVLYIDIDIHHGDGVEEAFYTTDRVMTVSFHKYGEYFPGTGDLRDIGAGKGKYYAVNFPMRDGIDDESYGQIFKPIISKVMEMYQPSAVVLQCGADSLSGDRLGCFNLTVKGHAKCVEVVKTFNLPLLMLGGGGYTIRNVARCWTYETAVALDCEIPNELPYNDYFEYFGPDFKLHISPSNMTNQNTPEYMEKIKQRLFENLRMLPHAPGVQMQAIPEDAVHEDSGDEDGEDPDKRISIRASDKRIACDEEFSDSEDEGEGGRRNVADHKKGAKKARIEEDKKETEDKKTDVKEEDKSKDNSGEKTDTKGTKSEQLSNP

In the case of ST088357, the IC50 [1] is reported as 16.9 µM, the “% inhibition at 100 μM” value [2] is reported as 34.28% and the “% inhibition at 100 μM” value [3] is reported as 86.90%.
